Reference: patent US11883387B2, “PqsR inverse agonists” (HELMHOLTZ-ZENTRUM FÜR INFEKTIONSFORSCHUNG GMBH, priority 2018, dated 2024)
pIC50: −log10 of the molar value.

Experiments:
[1] = test system: P. aeruginosa pyocyanin production; assay: Pyocyanin assay; assay type: cell-based, P. aeruginosa PA14; details: Pseudomonas aeruginosa, PA14, 16 h, read-out: IC50-value towards pyocyanin production, PA14 in PPGAS medium, 16 h
Procedure: Inhibition of P. aeruginosa pyocyanin production by compounds was determined photometrically as described before.[20] In short, an overnight culture of PA14 in PPGAS medium was washed, diluted in medium to a start OD600 of 0.02, and incubated for 16 h (37° C., 200 rpm, relative humidity 75%) in the presence of test compounds. Then, cultures were extracted with chloroform and re-extracted with 0.2 M HCl. Protonated red colored pyocyanin was determined by measuring OD520 and normalizing to OD600.

[2] = Kinetic Turbidimetric Aqueous Solubility at room temperature for 5 min; assay type: physicochemical; details: PBS buffer, kinetic from dmso stock, 2% DMSO
Procedure: Kinetic Turbidimetric Aqueous Solubility at room temperature for 5 min. Test compound was diluted in PBS buffer to give a range of concentrations (typically 0.4, 2, 4, 20, 40, 100, and 200 μM, final DMSO concentration 2%) and incubated at room temperature for 5 min. Absorbance was measured at a wavelength of 620 nm and the solubility was estimated from the concentration of test compound that produces an increase in absorbance above the vehicle control (i.e., […]). Data was analyzed by fitting a four parameter sigmoidal function to the measured and normalized absorbances and AUC calculation providing access to Log S (decadic logarithm of the solubility).

PqsR = PqsR (Pseudomonas aeruginosa, UniProt Q9I4X0); assay: E. coli based β-galactosidase reporter gene assay (PqsR inverse agonistic activity); assay type: cell-based; design: expressed in transfected cells; host or cells: Escherichia coli DH5α
Chain of PqsR (Q9I4X0 whole entry): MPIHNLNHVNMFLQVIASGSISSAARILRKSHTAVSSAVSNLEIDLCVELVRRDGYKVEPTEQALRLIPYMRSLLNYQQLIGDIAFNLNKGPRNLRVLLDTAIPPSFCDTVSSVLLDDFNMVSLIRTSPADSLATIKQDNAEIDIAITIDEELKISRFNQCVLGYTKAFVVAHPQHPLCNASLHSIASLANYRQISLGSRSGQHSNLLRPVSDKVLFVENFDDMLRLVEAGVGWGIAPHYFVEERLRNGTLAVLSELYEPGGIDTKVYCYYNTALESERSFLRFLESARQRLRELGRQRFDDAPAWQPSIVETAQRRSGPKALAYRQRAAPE
Procedure, shortened: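 E. coli DH5α carrying pEAL08-2 (tac-driven pqsR with pqsA-lacZ) was grown to OD600 0.2 and incubated with 0.001–10 μM compound plus 50 nM PQS for 2.5 h at 37 °C. β-Galactosidase activity was measured by ONPG conversion in permeabilized cells and normalized between the no-PQS and solvent controls. IC50 came from concentration variation.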

Row | SMILES | pIC50 [1] | solubility at 5 min [2] [µM] | pIC50 (PqsR)
1 | CC(C)Oc1ccc(-c2ncc(CNc3cc(Cl)nc(C(F)(F)F)c3)s2)cc1 [Compound 161, 2-Chloro-N-((2-(4-isopropoxyphenyl)thiazol-5-yl)methyl)-6-(trifluoromethyl)pyridin-4-amine] | ≥ 6.60 | > 25 | ≥ 7.30
2 | Fc1cc2nc(CSc3ccnc(C(F)(F)F)c3)[nH]c2cc1Cl [Compound 180, 6-chloro-5-fluoro-2-(((2-(trifluoromethyl)pyridin-4-yl)thio)methyl)-1H-benzo[d]imidazole] | 5.30 to 6.00 | > 50 | 6.00 to 6.60
3 | CC(C)Oc1ccc(-c2ncc(CNc3cc(Cl)nc(C(F)(F)F)c3)cn2)cc1Cl [Compound 166] | ≥ 6.60 | > 25 | ≥ 7.30
4 | CC(C)Oc1ccc(-n2cc(CNc3ccnc(C(F)(F)F)c3)nn2)cc1Cl [Compound 036, N-((1-(3-Chloro-4-isopropoxyphenyl)-1H-1,2,3-triazol-4-yl)methyl)-2-(trifluoromethyl)pyridin-4-amine] | ≥ 6.60 | > 25 | ≥ 7.30
5 | FC(F)(F)c1cc(OCc2nc3cc(Oc4ccccc4)ccc3[nH]2)ccn1 [Compound 177, 5-phenoxy-2-(((2-(trifluoromethyl)pyridin-4-yl)oxy)methyl)-1H-benzo[d]imidazole] | 5.30 to 6.00 | > 25 | 6.00 to 6.60
6 | FC(F)(F)c1cc(SCc2nc3cc(Cl)c(Cl)cc3[nH]2)ccn1 [Compound 119, 5,6-Dichloro-2-(((2-(trifluoromethyl)pyridin-4-yl)thio)methyl)-1H-benzo[d]imidazole] | 5.30 to 6.00 | > 25 | 6.60 to 7.29
7 | FC(F)(F)c1cc(NCc2ncc(-c3ccc(Oc4ccccc4)cc3)s2)ccn1 [Compound 078, N-((5-(4-Phenoxyphenyl)thiazol-2-yl)methyl)-2-(trifluoromethyl)pyridin-4-amine] | ≥ 6.60 | > 10 | ≥ 7.30
8 | CC(C)Oc1ccc(-n2cc(CNc3ccnc([N+](=O)[O-])c3)nn2)cc1Cl [Compound 157, N-((1-(3-chloro-4-isopropoxyphenyl)-1H-1,2,3-triazol-4-yl)methyl)-2-nitropyridin-4-amine] | ≥ 6.60 | > 10 | ≥ 7.30
9 | COc1ccc(-c2ncc(CNc3ccnc(C(F)(F)F)c3)s2)cc1C [Compound 074, N-((2-(4-Methoxy-3-methylphenyl)thiazol-5-yl)methyl)-2-(trifluoromethyl)pyridin-4-amine] | 6.00 to 6.60 | > 25 | 6.60 to 7.29
10 | Fc1cccc(Oc2ccc(-n3cc(CNc4ccnc(C(F)(F)F)c4)nn3)cc2)c1 [Compound 145, N-((1-(4-(3-fluorophenoxy)phenyl)-1H-1,2,3-triazol-4-yl)methyl)-2-(trifluoromethyl)pyridin-4-amine] | ≥ 6.60 | > 25 | ≥ 7.30
11 | CC(C)Oc1ccc(-n2cc(CNc3cc(Cl)nc(C(F)(F)F)c3)nn2)cc1Cl [Compound 042, 2-Chloro-N-((1-(3-chloro-4-isopropoxyphenyl)-1H-1,2,3-triazol-4-yl)methyl)-6-(trifluoromethyl)pyridin-4-amine] | ≥ 6.60 | > 10 | ≥ 7.30
12 | COc1ccc(-c2ccc(CNc3ccnc(C(F)(F)F)c3)nc2)cc1Cl [Compound 104, N-((5-(3-Chloro-4-methoxyphenyl)pyridin-2-yl)methyl)-2-(trifluoromethyl)pyridin-4-amine] | 5.30 to 6.00 | > 10 | 6.60 to 7.29
13 | FC(F)(F)c1cc(SCc2ccc(-c3ccc(Cl)nc3)cn2)ccn1 [Compound 112, 6-Chloro-6′-(((2-(trifluoromethyl)pyridin-4-yl)thio)methyl)-3,3′-bipyridine] | 5.30 to 6.00 | > 25 | 6.60 to 7.29
